{"source": "patent US5753658A", "about": "“Quinolonecarboxylic acid derivatives” (Senju Pharmaceutical Co., Ltd., priority 1993, dated 1998)", "key": {"S. aureus IFO 13276": {"tested_on": "S. aureus IFO 13276", "test": "Antibacterial test (minimum inhibitory concentration), method designated by Japan Society of Chemotherapy", "assay_type": "cell-based, Staphylococcus aureus", "conditions": "for MIC: Staphylococcus aureus, IFO13276, S. aureus IFO 13276, Gram's stain +, 10^6 cells/ml", "experimental": "(§1) Antibacterial test was carried out according to the method designated by Japan Society of Chemotherapy in Chemotherapy, 29 (1): 76 (1981), the content of which is herein incorporated by reference. Each of the compounds obtained in Examples 2, 4 and 7 is tested. As a control drug, 1-ethyl-6,8-difluoro-1,4-dihydro-4-oxo-7-(1-piperazinyl)-3-quinolinecarboxylic acid was used, which is represented by formula IV when R1 is hydrogen, R3 is ethyl, R4 and R5 are hydrogen, and Z is piperazinyl.\n(§2) The results are shown in Table 1 in terms of minimum inhibitory concentration (MIC)."}, "P. aeruginosa IFO 13275": {"tested_on": "P. aeruginosa IFO 13275", "test": "Antibacterial test (minimum inhibitory concentration), method designated by Japan Society of Chemotherapy", "assay_type": "cell-based", "conditions": "Pseudomonas aeruginosa, IFO13275; P. aeruginosa IFO 13275, Gram's stain -, 10^6 cells/ml", "experimental": "as §1, §2"}}}
{"smiles": "CCn1cc(C(=O)O)c(=O)c2cc(F)c(N3CCNCC3)c(F)c21", "note": "[Control drug, 1-ethyl-6,8-difluoro-1,4-dihydro-4-oxo-7-(1-piperazinyl)-3-quinolinecarboxylic acid, reference compound]", "values": [{"measurement": "MIC", "setting": "S. aureus IFO 13276", "result": 0.39, "unit": "µg/mL"}, {"measurement": "MIC", "setting": "P. aeruginosa IFO 13275", "result": "< 0.025", "unit": "µg/mL"}]}
{"smiles": "CCn1cc(C(=O)O)c(=O)c2cc(F)c(N3CCN(S(=O)(=O)c4ccc(N)cc4)CC3)c(F)c21", "note": "[Example 2, 1-Ethyl-6,8-difluoro-1,4-dihydro-4-oxo-7-[4-(4-aminobenzenesulfonyl)-1-piperazinyl]-3-quinolinecarboxylic acid]", "values": [{"measurement": "MIC", "setting": "S. aureus IFO 13276", "result": 0.2, "unit": "µg/mL"}, {"measurement": "antibacterial activity compared with the control drug (in words)", "setting": "S. aureus IFO 13276; against S. aureus, versus control drug", "result": "more potent antibacterial activity than the control drug"}, {"measurement": "MIC", "setting": "P. aeruginosa IFO 13275", "result": "< 0.025", "unit": "µg/mL"}]}
{"smiles": "CCn1cc(C(=O)O)c(=O)c2cc(F)c(N3CCN(S(=O)(=O)c4ccc(C)cc4)CC3)c(F)c21", "note": "[Example 4, 1-Ethyl-6,8-difluoro-1,4-dihydro-4-oxo-7-[4-(4-methylbenzenesulfonyl)-1-piperazinyl]-3-quinolinecarboxylic acid]", "values": [{"measurement": "MIC", "setting": "S. aureus IFO 13276", "result": 0.78, "unit": "µg/mL"}, {"measurement": "MIC", "setting": "P. aeruginosa IFO 13275", "result": "< 0.025", "unit": "µg/mL"}]}
{"smiles": "CCn1cc(C(=O)O)c(=O)c2cc(F)c(N3CCN(S(=O)(=O)c4ccc(F)cc4)CC3)c(F)c21", "note": "[Example 7, 1-Ethyl-6,8-difluoro-1,4-dihydro-4-oxo-7-[4-(4-fluorobenzenesulfonyl)-1-piperazinyl]-3-quinolinecarboxylic acid]", "values": [{"measurement": "MIC", "setting": "S. aureus IFO 13276", "result": 0.78, "unit": "µg/mL"}, {"measurement": "MIC", "setting": "P. aeruginosa IFO 13275", "result": "< 0.025", "unit": "µg/mL"}]}
